According to patent US8357798B2, “Process for preparing N-alkylated hydroxypyrimidinone compounds” (Merck Sharp & Dohme Corp., priority 2004, dated 2013):
Structures can show the parent of a compound that is named as a salt.

What was measured:
[1] = hygroscopicity (vapor sorption analysis); format: physicochemical; conditions: for weight when equilibrated back down to 5% RH: 5% RH after 95% RH; for weight increase when equilibrated at 95% RH: 95% RH at 25° C.
Description: Hygroscopicity data was obtained on a VTI Symmetrical Vapor Sorption Analyzer Model SGA-1. Data was collected at room temperature from 5-95% relative humidity and back, 5% relative humidity change per step. Equilibrium conditions were 0.01 weight percent change in 5 minutes with a maximum equilibration time of 180 minutes.

solubility in water = format: physicochemical
HIV integrase = HIV integrase (Human immunodeficiency virus type 1 group M subtype B, UniProt P04585); assay: integrase inhibition assay in which strand transfer is catalyzed by recombinant integrase; format: biochemical; conditions: assay of Example 193 of WO 02/30930
Source text: Compound A is an inhibitor of HIV integrase. […] The strand transfer assay is described in Example 193 of WO 02/30930.

[2] = system: acute HIV infection of T-lymphoid cells; assay: assay for the inhibition of acute HIV infection of T-lymphoid cells; format: cell-based; conditions: in accordance with Vacca et al., PNAS 1994, 91: 4096-4100
[3] = listed as Form 1 Crystalline Potassium Salt of Compound A

SMILES: Cc1nnc(C(=O)NC(C)(C)c2nc(C(=O)NCc3ccc(F)cc3)c(O)c(=O)n2C)o1 [listing 1 of 2 here]
- weight when equilibrated back down to 5% RH [1, 3]: returned back to approximately its dry weight
- weight increase when equilibrated at 95% RH [1, 3]: 1.8%
- phase by XRPD after the hygroscopicity experiment ([1]; XRPD after 5-95% RH cycle): had not changed phases

SMILES: Cc1nnc(C(=O)NC(C)(C)c2nc(C(=O)NCc3ccc(F)cc3)c(O)c(=O)n2C)o1 [potassium salt of Compound A]
- solubility in water (solubility in water): comparatively quite soluble
- solubility in water compared to the free base (solubility in water; relative to Compound A free base): significantly more soluble

SMILES: Cc1nnc(C(=O)NC(C)(C)c2nc(C(=O)NCc3ccc(F)cc3)c(O)c(=O)n2C)o1 [listing 2 of 2 here]
- weight when equilibrated back down to 5% RH [1]: returned to its dry weight
- weight increase when equilibrated at 95% RH [1]: 1%

SMILES: Cc1nnc(C(=O)NC(C)(C)c2nc(C(=O)NCc3ccc(F)cc3)c(O)c(=O)n2C)o1 [Compound A, N-(4-fluorobenzyl)-5-hydroxy-1-methyl-2-(1-methyl-1-{[(5-methyl-1,3,4-oxadiazol-2-yl)carbonyl]amino}ethyl)-6-oxo-1,6-dihydropyrimidine-4-carboxamide]
- inhibition of integrase strand transfer (HIV integrase): potent inhibitor
- inhibition of acute HIV infection of T-lymphoid cells [2]: active
- solubility in water (solubility in water): limited
